These results are taken from patent publication US5047413A (priority 1987, dated 1991).

Each structure is given as a SMILES string. Converted amounts (≈) assume the structure as drawn. “Also recorded” adds a separate entry of the source. Read-outs that look alike come from different tables or passages of the source.

Data set [1] deals with guinea-pig urinary bladder muscle. Put plainly: tissue or blood.
The conditions of data set [2]: M. Blau, U. Retzke, Zbl. Gynakol. 100 (1984); cited from earlier work.
The test system of data set [3] is guinea pig taenia coli. Briefly: tissue or blood. To be noted: Cavia porcellus.
The test system of data set [4] is urinary bladder. The following applies: literature, background; cited from earlier work.
Data set [5] concerns guinea pig ileum. Put plainly: tissue or blood.

Turning to `CCCOC(C(=O)OC1CCN(C)CC1)(c1ccccc1)c1ccccc1` [propiverine, 1-methyl-4-piperidyl α,α-diphenyl-α-(n-propoxy)acetate], the “myotropic/spasmolytic activity compared with papaverine (in words)” value in data set [1] is given as “reaches the potency of papaverine”. The EC50 in data set [1] (Cavia porcellus, read-out: ED50 (myotropic/spasmolytic activity)) was determined as 53 µg/mL (≈ 144 µM); in data set [3] (read-out: ED50 (myotropic/spasmolytic activity)), 2 µg/mL (≈ 5.44 µM); in data set [3] (read-out: Myotropic/spasmolytic activity, Taenia coli, Barium 200 μg/ml (EC 50)) it was 12 µg/mL (≈ 32.7 µM); in data set [5] (Cavia porcellus, read-out: Neurotropic/spasmolytic activity, Ileum, Carbachol 50 ng/ml), 0.059 µg/mL (≈ 0.161 µM). In addition, the “effect on blood pressure (in words)” value in data set [2] is “lowering of the blood pressure”. In data set [4], the “side effects (in words)” value is reported as “not amenable to general use because of certain side effects”. Moreover, in data set [4], the “therapeutic utility for the tone of the urinary bladder (in words)” value is reported as “has shown therapeutic utility; also recorded: insufficiently effective in some patients”. Moreover, in data set [5], the “predominating effect, neurotropic/spasmolytic versus myotropic/spasmolytic (in words)” value is recorded as “the undesired myotropic/spasmolytic effect predominates”.
